Results: PMC8765437, “GSK3640254 Is a Novel HIV-1 Maturation Inhibitor with an Optimized Virology Profile” (Antimicrobial Agents and Chemotherapy, 2022)

What was measured:
[1] = test system: HIV-2 strains; experiment: HIV-2 strains, luciferase activity in CEM-NKR-CCR5-Luc cells; assay type: cell-based
Procedure: (§1) Virus yields were measured in dose-response experiments by either luciferase activity in human T-cells (CEM-NKR-CCR5-Luc), extracellular reverse transcriptase activity in MT-2 cells (T-tropic viruses), or extracellular p24 antigen in PM1 cells (M-tropic viruses).
(§2) Multiple-cycle assays using recombinant viruses or clinical isolates were used to assess MI antiviral activity as described previously ([10]). pNLRepRlucP373S (the P373S change is in the Gag gene and converts an outlier polymorphism in the NL4-3 gene to the prevalent amino acid in the population) plasmids containing SDMs in Gag or gag/pr regions from clinical isolates were transfected into HEK 293T cells, and the supernatant containing recombinant virus was harvested after 4 to 5 days. Virus was used to infect MT-2 cells in the presence of a 3-fold serially diluted compound at a final dimethyl sulfoxide (DMSO) concentration of 1%. The inocula of the reporter viruses were determined based on the luciferase activity detected on day 4 postinfection. […] Virus growth was determined on days 4 to 5 postinfection for reporter variants or days 5 to 11 for the other viruses. The reporter viruses were detected by a luciferase assay according to manufacturer protocols (Brite-Glo luciferase kit [Promega] for CEM-NKR-CCR5-Luc cells and Dual-Luciferase Reporter 1000 assay system [Promega] for the other cells), and luminescence was detected on a Wallac Trilux. The growth of clinical isolates in PBMCs was quantitated by reverse transcriptase activity in a 96-well scintillation proximity assay (SPA). […] Luminescence was detected on a Wallac Trilux programmed for tritium counting with SPA beads in opaque plates. The growth of the reporter-free laboratory M-tropic strains and clinical isolates was monitored by a p24 enzyme-linked immunosorbent assay (ELISA; PerkinElmer Life Sciences, Waltham, MA) performed on culture supernatants.
(§3) Maximal percent inhibition values were calculated as MPI = 100 – (mean signals at the 2 highest concentrations of compound/mean signal of 2 no-drug control wells) × 100.

[2] = test system: HIV-1 M tropic strains; experiment: M-tropic laboratory strains, extracellular p24 antigen in PM1 cells; assay type: cell-based
Procedure: as §1
as §2, with “postinfection. The MOI (ratio of infectious virions to target cells) of reporter-free laboratory strains and clinical isolates was 0.005, as derived from a tissue culture infectious dose study. Clinical isolates or reporter-free viruses were examined in the reporter CEM-NKR-CCR5-Luc cells or PBMCs at MOIs ranging from 0.005 to 0.01. Each infection started with a drug-free preincubation of the cell-virus mixtures, performed at 37°C and 5% CO2 for either 1 h at 2 times the final cell density (reporter viruses) or 1 h (reporter-free laboratory strains) or 3 h (clinical isolates) using cell pellets in 0.5 mL of medium.” for “postinfection.”
as §3

[3] = Human immunodeficiency virus 2, HIV-2 ROD, first value in cell
[4] = Human immunodeficiency virus 1, PM1, Bal
[5] = Human immunodeficiency virus 1, PM1, JRFL

SMILES	EC50 ([1]; Human immunodeficiency virus 2, HIV-2 287) [nM]	EC50 [1, 3] [nM]	EC50 [2, 4] [nM]	EC50 [2, 5] [nM]
C=C(C)[C@@H]1CC[C@]2(NCCN3CCS(=O)(=O)CC3)CC[C@]3(C)[C@H](CC[C@@H]4[C@@]5(C)CC=C(C6=CC[C@@](CF)(C(=O)O)CC6)C(C)(C)[C@@H]5CC[C@]43C)[C@@H]12 [GSK’254]	1240	> 3000	1.1	1.2
C=C(C)[C@@H]1CC[C@]2(NCCN3CCS(=O)(=O)CC3)CC[C@]3(C)[C@H](CC[C@@H]4[C@@]5(C)CC=C(c6ccc(C(=O)O)cc6)C(C)(C)[C@@H]5CC[C@]43C)[C@@H]12 [GSK’795, reference compound]		> 3000	3.7	13
